Reference: BindingDB's records for doi:10.1021/jm00384a023 (1987)

Test: Inhibitor concentration required to block 50% of the specific [3H]PAF binding, obtained as natural product.

| Compound | IC50 [nM] |
| --- | --- |
| CCCC1=C[C@@]2(OC)C(=CC1=O)O[C@H](c1ccc(OC)c(OC)c1)[C@H]2C | 70 |
| C=CCC1=CC2(OCC)C(=CC1=O)O[C@H](c1ccc(OC)c(OC)c1)[C@H]2C (some centres not stated) | 500 |
